Experimental data taken from patent publication US20090093493A1, “1-PHENYLALCOXY-2-BETA-PHENYLETHYL DERIVATIVES AS P-GLYCOPROTEIN (P-GP) INHIBITORS USEFUL IN DRUG RESISTANCE EVENTS” (priority 2007, published 2009).
Like-named read-outs stand apart in the source and are kept apart here.

Columns and labels:
P-glycoprotein [1] = biological target: T1, P-glycoprotein (Homo sapiens, UniProt P08183); test: Doxorubicin accumulation in MCF7/Adr cells after pretreatment with compound (flow cytometry); details: for endocellular accumulation: above-described assays
Method: (§1) Another assay is performed on MCF-7/ADr cells. These cells, resistant to the chemotherapy agent doxorubicin, are exposed for some hours to the compound under examination and subsequently treated with doxorubicin. The amount of doxorubicin entering the cell following treatment with the compounds under examination is then measured.
(§2) At the end of the incubation, the incubation medium containing the compound under examination was removed, and fresh medium containing 50 μM doxorubicin was added for 24 h. The negative control consisted of plates containing an alike number of cells untreated with the compound. At the end of the 24 h, the medium was removed and the cells split and prepared according to standard procedure for flow cytometry analysis.

P-gp [2] = biological target: T2, P-gp (Homo sapiens, UniProt P08183); details: reported in literature; cited from earlier work
P-gp [3] = biological target: T2, P-gp; test: Classification of compounds interfering with P-gp activity (method of Polli et al. / Taub et al.); type: cell-based; parameters: apparent permeability determined in Caco-2 cells; endogenous in cells; host or cells: Caco-2; details: above-described assays
From the text: The biological assays performed verify a) transport for each for each candidate compound by P-gp (apparent permeability determined in Caco-2 cells); b) ATP-ase activation in Caco-2 cells; c) inhibition of [^3H] Vinblastine basolateral-apical transport (in Caco-2 cells) and of rhodamine (in guinea pig ileum).

P-glycoprotein [4] = biological target: T1, P-glycoprotein
Method: as §1, §2

[5] = MCF7/Adr, 20 μM compound for 120 min, then 50 μM doxorubicin for 24 h

T1 sequence (P08183 whole entry): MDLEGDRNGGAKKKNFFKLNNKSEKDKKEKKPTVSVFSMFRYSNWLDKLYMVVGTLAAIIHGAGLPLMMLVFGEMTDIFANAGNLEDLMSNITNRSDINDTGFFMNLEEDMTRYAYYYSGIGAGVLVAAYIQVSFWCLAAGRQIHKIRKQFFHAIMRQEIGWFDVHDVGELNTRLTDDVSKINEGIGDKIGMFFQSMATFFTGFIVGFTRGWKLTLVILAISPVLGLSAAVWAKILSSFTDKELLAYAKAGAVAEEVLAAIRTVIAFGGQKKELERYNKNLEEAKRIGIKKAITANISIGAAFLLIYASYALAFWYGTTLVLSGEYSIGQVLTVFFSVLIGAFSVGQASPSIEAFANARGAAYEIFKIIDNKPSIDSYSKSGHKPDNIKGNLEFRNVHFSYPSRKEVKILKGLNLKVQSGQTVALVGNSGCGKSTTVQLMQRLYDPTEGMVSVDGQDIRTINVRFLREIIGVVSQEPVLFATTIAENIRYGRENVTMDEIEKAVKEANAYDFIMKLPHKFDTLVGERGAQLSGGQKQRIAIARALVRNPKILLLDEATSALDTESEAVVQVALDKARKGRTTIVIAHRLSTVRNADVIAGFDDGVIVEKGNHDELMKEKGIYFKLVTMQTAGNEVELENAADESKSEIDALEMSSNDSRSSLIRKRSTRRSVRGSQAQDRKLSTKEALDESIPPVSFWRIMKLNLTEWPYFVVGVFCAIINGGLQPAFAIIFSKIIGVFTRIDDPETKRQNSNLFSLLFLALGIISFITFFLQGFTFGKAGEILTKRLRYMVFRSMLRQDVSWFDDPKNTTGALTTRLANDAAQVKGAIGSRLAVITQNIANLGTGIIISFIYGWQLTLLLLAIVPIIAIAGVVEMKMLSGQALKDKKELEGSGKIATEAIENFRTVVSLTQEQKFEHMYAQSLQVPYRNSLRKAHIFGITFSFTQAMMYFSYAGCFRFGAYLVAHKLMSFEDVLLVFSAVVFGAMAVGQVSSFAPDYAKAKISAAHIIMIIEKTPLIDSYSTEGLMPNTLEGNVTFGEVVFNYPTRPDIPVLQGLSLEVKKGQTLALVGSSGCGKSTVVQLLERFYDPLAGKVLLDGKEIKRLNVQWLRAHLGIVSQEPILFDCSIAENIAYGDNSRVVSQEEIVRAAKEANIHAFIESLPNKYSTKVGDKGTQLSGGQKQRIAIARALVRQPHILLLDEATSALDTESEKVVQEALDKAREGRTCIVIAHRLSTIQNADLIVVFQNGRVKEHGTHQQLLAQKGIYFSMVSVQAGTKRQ
T2 sequence (P08183 whole entry): as above

| SMILES | inletting of doxorubicin in the cells (P-glycoprotein [1]; [5]) | endocellular accumulation (P-glycoprotein [1]) | further results |
| --- | --- | --- | --- |
| COc1cccc(CCc2ccccc2OCc2ccccn2)c1 [EB12, 2({2-[2-(3-methoxyphenyl)ethyl]phenoxy}methyl]pyridine] | increase | very high | effectiveness in P-glycoprotein inhibition relative to Verapamil and EB27 (P-glycoprotein [1]; [5]): 5 fold |
| COc1cccc(CCc2ccccc2OCc2cccc(OC)c2)c1 [EB27, 1-[(3-methoxybenzyl)oxy]-2-[2-(3-methoxyphenyl)ethyl]benzene] | increase | very high | – |
| COc1cc2c(cc1OC)CN(CCc1ccc(NC(=O)c3cccc4c(=O)c5cccc(OC)c5[nH]c34)cc1)CC2 [GF120918] | – | – | classification as pure inhibitor of P-gp (P-gp [2]): sole pure inhibitor of P-gp |
| c1ccc(CCc2ccccc2OCc2ccccc2)cc1 [EB 30, 1-(benzyloxy)-2-(2-phenylethyl)benzene] | – | – | Category of interference with P-gp activity (P-gp [3]): IIB |
| COc1cccc(CCc2ccccc2OCCCN2CCN(c3ncccn3)CC2)c1 [EB25, 3-{2-[2-(3-methoxyphenyl)ethyl]phenoxy}propan-1-[4-(2-pyrimidyl)piperazine]] | – | – | endocellular accumulation (P-glycoprotein [4]): very high |
